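Growth conditions: 96-well plates. Treatment: test compound, 48 hours, 5 concentrations. Analysis: linear interpolation between bracketing concentrations; unreached endpoints set to highest concentration. Here, GI50 denotes the concentration required for 50% inhibition of growth. TGI: concentration producing complete growth inhibition.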
Assays:
Test in all cases: NCI anticancer screen, dose series, 48 h
[1] = test system: 786-0 renal
[2] = test system: A498 renal
[3] = test system: A549 NSCLC
[4] = test system: ACHN renal
[5] = test system: CAKI-1 renal
[6] = test system: CCRF-CEM leukemia
[7] = test system: COLO 205 colon
[8] = test system: DU-145 prostate
[9] = test system: EKVX NSCLC
[10] = test system: HCC-2998 colon
[11] = test system: HCT-116 colon
[12] = test system: HCT-15 colon
[13] = test system: HL-60(TB) leukemia
[14] = test system: HOP-62 NSCLC
[15] = test system: HOP-92 NSCLC
[16] = test system: HS 578T breast
[17] = test system: HT29 colon
[18] = test system: K-562 leukemia
[19] = test system: KM12 colon
[20] = test system: LOX IMVI melanoma
[21] = test system: M14 melanoma
[22] = test system: MALME-3M melanoma
[23] = test system: MCF7 breast
[24] = test system: MDA-MB-231 breast
[25] = test system: MDA-MB-435
[26] = test system: NCI-H226 lung
[27] = test system: NCI-H23 lung
[28] = test system: NCI-H460 lung
[29] = test system: NCI-H522 lung
[30] = test system: OVCAR-3 ovarian
[31] = test system: OVCAR-4 ovarian
[32] = test system: OVCAR-5 ovarian
[33] = test system: OVCAR-8 ovarian
[34] = test system: PC-3 prostate
[35] = test system: RPMI-8226 leukemia
[36] = test system: RXF 393 renal
[37] = test system: SF-268 CNS
[38] = test system: SF-295 CNS
[39] = test system: SF-539 CNS
[40] = test system: SK-MEL-2 melanoma
[41] = test system: SK-MEL-28 melanoma
[42] = test system: SK-MEL-5 melanoma
[43] = test system: SN12C renal
[44] = test system: SNB-19 CNS
[45] = test system: SNB-75 CNS
[46] = test system: SR leukemia
[47] = test system: SW-620 colon
[48] = test system: T-47D breast
[49] = test system: TK-10 renal
[50] = test system: U251 CNS
[51] = test system: UACC-257 melanoma
[52] = test system: UACC-62 melanoma
[53] = test system: UO-31 renal

CCCCNCC(O)c1cc2c(Cl)cc(Cl)cc2c2cc(C(F)(F)F)ccc12 (stereo unspecified) showed a GI50 [1] of 1510 nM, a TGI [1] of 3430 nM and a GI50 [2] of 1360 nM. The TGI [2] was 2700 nM, the GI50 [3] was 1820 nM and the TGI [3] was 3400 nM. The GI50 [4] was 1740 nM, the TGI [4] was 3450 nM and the GI50 [5] was 1710 nM. The TGI [5] was 3440 nM, the GI50 [6] was 2500 nM and the TGI [6] was 5170 nM. The GI50 [7] was 1780 nM, the TGI [7] was 3310 nM and the GI50 [8] was 1890 nM. The TGI [8] was 3360 nM, the GI50 [9] was 1820 nM and the TGI [9] was 3610 nM. For the same compound, the GI50 [10] was 1490 nM, the TGI [10] was 2940 nM and the GI50 [11] was 1530 nM. For the same compound, the TGI [11] was 3050 nM, the GI50 [12] was 1790 nM and the TGI [12] was 4140 nM. For the same compound, the GI50 [13] was 1770 nM, the TGI [13] was 3610 nM and the GI50 [14] was 1770 nM. For the same compound, the TGI [14] was 3280 nM, the GI50 [15] was 1200 nM and the TGI [15] was 2710 nM. The GI50 [16] was 1590 nM, the TGI [16] was 3670 nM and the GI50 [17] was 1770 nM. The TGI [17] was 3230 nM, the GI50 [18] was 1610 nM and the TGI [18] was 3410 nM. For the same compound, the GI50 [19] was 1930 nM, the TGI [19] was 3450 nM and the GI50 [20] was 1660 nM. The TGI [20] was 3600 nM, the GI50 [21] was 1810 nM and the TGI [21] was 3380 nM. For the same compound, the GI50 [22] was 2010 nM, the TGI [22] was 4260 nM and the GI50 [23] was 1480 nM. For the same compound, the TGI [23] was 2960 nM, the GI50 [24] was 1600 nM and the TGI [24] was 3270 nM. The GI50 [25] was 1800 nM, the TGI [25] was 3560 nM and the GI50 [26] was 1840 nM. The TGI [26] was 3720 nM, the GI50 [27] was 1590 nM and the TGI [27] was 3320 nM. The GI50 [28] was 1680 nM, the TGI [28] was 3300 nM and the GI50 [29] was 1750 nM. For the same compound, the TGI [29] was 3350 nM, the GI50 [30] was 1950 nM and the TGI [30] was 3460 nM. The GI50 [31] was 1930 nM, the TGI [31] was 3770 nM and the GI50 [32] was 1560 nM. For the same compound, the TGI [32] was 3080 nM, the GI50 [33] was 1890 nM and the TGI [33] was 3860 nM. It also gave a GI50 [34] of 1580 nM, a TGI [34] of 3030 nM and a GI50 [35] of 2070 nM. For the same compound, the TGI [35] was 4720 nM, the GI50 [36] was 1480 nM and the TGI [36] was 2850 nM. It also gave a GI50 [37] of 1840 nM, a TGI [37] of 3710 nM and a GI50 [38] of 1850 nM. It also gave a TGI [38] of 3670 nM, a GI50 [39] of 1690 nM and a TGI [39] of 3440 nM. The GI50 [40] was 2200 nM, the TGI [40] was 3880 nM and the GI50 [41] was 1900 nM. It also gave a TGI [41] of 3410 nM, a GI50 [42] of 1710 nM and a TGI [42] of 3100 nM. For the same compound, the GI50 [43] was 1850 nM, the TGI [43] was 3560 nM and the GI50 [44] was 1820 nM. It also gave a TGI [44] of 3510 nM, a GI50 [45] of 1700 nM and a TGI [45] of 3230 nM. The GI50 [46] was 1420 nM, the TGI [46] was 3930 nM and the GI50 [47] was 1690 nM. It also gave a TGI [47] of 3220 nM, a GI50 [48] of 1740 nM and a TGI [48] of 3800 nM. For the same compound, the GI50 [49] was 1980 nM, the TGI [49] was 3510 nM and the GI50 [50] was 1720 nM. For the same compound, the TGI [50] was 3200 nM, the GI50 [51] was 1830 nM and the TGI [51] was 3510 nM. The GI50 [52] was 1860 nM, the TGI [52] was 3510 nM and the GI50 [53] was 1340 nM. The TGI [53] was 2830 nM.
